From patent US11572590B2, “Methods for evaluating tumor cell spheroids using 3D microfluidic cell culture device” (Dana-Farber Cancer Institute, Inc., priority 2017, dated 2023)
Like-named read-outs stand apart in the source and are kept apart here.

Assays:
Assay in all cases: SelectScreen Kinase Profiling, single point inhibition and IC50 for off-target kinases
Assay type in all cases: biochemical
off-target kinases [1] = biological target: off-target kinases (Homo sapiens, UniProt P10721, D820E); settings: KIT D820E, mutant y, LanthaScreen Binding
Chain of off-target kinases (Homo sapiens, UniProt P10721, D820E) (P10721 26-976 D820E): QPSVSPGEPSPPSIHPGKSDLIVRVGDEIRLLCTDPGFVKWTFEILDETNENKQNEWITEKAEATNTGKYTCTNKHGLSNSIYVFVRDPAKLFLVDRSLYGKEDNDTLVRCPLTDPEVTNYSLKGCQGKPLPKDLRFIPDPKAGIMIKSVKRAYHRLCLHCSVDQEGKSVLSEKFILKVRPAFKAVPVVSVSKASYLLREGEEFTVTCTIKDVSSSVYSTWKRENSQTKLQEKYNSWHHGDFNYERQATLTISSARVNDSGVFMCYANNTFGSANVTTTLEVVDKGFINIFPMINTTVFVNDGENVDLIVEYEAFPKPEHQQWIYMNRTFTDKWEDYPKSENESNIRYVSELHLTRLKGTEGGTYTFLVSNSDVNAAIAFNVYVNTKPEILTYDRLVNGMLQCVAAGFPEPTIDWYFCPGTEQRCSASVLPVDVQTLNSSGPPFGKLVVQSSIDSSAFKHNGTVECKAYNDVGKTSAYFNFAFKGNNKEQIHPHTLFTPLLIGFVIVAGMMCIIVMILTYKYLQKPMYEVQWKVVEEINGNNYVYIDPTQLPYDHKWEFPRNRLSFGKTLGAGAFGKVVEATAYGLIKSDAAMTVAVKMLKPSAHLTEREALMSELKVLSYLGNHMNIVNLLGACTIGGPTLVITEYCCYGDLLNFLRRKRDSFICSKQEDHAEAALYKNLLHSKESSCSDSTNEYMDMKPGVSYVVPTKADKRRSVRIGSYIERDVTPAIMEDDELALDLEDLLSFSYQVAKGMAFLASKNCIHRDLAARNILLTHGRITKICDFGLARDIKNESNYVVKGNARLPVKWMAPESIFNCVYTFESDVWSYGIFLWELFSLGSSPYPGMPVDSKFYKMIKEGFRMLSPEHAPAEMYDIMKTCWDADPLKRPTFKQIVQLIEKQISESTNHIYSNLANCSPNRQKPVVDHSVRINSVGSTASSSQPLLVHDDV

off-target kinases [2] = biological target: off-target kinases (Homo sapiens, UniProt Q9NYA1); settings: SPHK1, Adapta, ATP Km app
Chain of off-target kinases (Homo sapiens, UniProt Q9NYA1) (Q9NYA1 whole entry): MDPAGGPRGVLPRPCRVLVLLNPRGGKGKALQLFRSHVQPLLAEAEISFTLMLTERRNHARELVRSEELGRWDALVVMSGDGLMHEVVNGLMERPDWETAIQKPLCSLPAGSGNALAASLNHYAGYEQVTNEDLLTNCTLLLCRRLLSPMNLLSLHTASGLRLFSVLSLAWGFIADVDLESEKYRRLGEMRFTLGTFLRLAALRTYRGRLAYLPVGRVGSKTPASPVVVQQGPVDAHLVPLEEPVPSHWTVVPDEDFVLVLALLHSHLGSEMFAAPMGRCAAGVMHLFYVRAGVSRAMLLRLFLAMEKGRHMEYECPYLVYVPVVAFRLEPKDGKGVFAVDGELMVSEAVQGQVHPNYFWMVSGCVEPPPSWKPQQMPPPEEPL

off-target kinases [3] = biological target: off-target kinases (Homo sapiens, UniProt P10721, T670I); settings: KIT T670I (mutant), ZLYTE, ATP Km app
Chain of off-target kinases (Homo sapiens, UniProt P10721, T670I) (P10721 26-976 T670I): as the sequence (P10721 26-976 D820E) above, with T645I, E795D counted along it

off-target kinases [4] = biological target: off-target kinases (Homo sapiens, UniProt P16234, D842V); settings: PDGFRA D842V, ATP Km app, ZLYTE
Chain of off-target kinases (Homo sapiens, UniProt P16234, D842V) (P16234 24-1089 D842V): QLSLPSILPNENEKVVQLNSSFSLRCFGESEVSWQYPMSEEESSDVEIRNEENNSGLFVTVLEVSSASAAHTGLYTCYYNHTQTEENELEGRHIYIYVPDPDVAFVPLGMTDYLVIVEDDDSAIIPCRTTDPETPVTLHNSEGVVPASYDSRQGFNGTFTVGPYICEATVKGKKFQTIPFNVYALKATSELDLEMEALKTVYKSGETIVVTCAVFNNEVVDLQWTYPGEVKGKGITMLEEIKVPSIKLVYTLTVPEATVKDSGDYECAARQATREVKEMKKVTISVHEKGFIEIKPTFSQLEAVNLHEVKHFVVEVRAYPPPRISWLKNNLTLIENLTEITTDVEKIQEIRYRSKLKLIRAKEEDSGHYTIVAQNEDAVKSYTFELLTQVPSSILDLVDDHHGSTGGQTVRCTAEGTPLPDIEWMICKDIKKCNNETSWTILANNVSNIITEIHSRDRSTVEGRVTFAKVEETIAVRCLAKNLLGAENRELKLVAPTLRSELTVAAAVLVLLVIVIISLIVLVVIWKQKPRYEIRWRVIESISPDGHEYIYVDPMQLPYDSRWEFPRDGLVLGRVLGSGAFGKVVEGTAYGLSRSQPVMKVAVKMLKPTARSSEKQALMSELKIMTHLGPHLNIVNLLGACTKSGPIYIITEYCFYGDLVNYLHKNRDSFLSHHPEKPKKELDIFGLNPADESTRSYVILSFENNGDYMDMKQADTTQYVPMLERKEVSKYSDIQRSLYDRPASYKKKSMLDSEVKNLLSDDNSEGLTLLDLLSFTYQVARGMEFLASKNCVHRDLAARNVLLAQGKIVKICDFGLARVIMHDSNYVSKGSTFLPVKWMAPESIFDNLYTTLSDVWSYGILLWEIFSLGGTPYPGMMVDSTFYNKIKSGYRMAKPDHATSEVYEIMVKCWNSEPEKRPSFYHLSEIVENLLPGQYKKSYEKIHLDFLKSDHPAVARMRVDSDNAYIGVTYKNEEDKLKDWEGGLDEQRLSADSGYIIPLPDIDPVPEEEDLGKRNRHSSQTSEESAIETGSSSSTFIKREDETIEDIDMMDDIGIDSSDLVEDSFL

off-target kinases [5] = biological target: off-target kinases (Homo sapiens, UniProt P09619); settings: PDGFRB (PDGFR beta), ZLYTE, ATP Km app
off-target kinases [6] = biological target: off-target kinases (Homo sapiens, UniProt Q9Y2K2); settings: SIK3, LanthaScreen Binding
Chain of off-target kinases (Homo sapiens, UniProt Q9Y2K2) (Q9Y2K2 whole entry): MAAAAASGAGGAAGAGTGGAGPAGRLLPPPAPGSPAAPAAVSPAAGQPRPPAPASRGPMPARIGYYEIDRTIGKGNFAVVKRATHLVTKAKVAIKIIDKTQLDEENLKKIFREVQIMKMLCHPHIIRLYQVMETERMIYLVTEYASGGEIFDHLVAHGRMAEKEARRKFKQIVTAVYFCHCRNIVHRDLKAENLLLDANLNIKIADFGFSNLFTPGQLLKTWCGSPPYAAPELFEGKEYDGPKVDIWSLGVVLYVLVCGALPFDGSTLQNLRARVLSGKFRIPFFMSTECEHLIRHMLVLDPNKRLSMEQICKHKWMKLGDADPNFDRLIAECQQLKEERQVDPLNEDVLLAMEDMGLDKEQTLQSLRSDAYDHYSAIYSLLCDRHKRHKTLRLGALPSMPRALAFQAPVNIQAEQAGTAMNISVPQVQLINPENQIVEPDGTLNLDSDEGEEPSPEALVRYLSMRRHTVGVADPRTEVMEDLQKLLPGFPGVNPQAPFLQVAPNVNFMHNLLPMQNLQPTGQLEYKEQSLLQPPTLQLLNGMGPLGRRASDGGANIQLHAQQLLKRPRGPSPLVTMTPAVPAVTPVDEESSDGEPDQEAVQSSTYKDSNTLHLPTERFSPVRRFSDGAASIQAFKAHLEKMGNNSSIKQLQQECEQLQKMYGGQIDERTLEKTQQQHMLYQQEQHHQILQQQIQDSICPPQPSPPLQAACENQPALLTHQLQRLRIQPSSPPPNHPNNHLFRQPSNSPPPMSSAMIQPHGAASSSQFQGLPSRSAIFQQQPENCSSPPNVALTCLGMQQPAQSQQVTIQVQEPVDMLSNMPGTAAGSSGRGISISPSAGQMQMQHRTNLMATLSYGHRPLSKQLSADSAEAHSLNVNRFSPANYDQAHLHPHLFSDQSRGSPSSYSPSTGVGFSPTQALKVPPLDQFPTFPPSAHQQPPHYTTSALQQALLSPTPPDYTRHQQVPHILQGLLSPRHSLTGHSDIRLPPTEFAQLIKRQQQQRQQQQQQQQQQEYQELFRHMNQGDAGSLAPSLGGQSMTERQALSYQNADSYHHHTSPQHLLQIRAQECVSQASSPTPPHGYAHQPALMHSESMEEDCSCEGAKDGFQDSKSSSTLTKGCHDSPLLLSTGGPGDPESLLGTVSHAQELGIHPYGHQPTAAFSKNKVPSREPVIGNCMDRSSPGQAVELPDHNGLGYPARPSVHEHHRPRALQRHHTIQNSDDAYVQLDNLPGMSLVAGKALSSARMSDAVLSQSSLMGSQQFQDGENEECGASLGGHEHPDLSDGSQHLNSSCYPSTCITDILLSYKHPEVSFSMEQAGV

off-target kinases [7] = biological target: off-target kinases (Homo sapiens, UniProt P32298); settings: GRK4; Cmpd1 1000 μM; ATP Km app; ZLYTE
Chain of off-target kinases (Homo sapiens, UniProt P32298) (P32298 whole entry): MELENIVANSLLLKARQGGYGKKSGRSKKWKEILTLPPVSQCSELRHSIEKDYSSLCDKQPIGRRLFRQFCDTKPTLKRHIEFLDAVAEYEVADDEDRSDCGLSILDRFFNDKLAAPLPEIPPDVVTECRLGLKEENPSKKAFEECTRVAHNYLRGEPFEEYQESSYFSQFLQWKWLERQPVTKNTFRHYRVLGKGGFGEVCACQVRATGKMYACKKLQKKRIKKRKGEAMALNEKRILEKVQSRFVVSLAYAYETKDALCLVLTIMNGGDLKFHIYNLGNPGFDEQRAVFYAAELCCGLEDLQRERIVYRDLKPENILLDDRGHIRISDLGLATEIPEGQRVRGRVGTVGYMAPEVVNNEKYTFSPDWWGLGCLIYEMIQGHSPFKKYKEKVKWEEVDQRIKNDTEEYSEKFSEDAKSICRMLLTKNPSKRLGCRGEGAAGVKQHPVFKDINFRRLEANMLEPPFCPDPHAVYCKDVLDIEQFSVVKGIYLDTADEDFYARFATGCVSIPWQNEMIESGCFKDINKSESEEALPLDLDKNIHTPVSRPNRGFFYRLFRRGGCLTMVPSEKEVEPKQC

off-target kinases [8] = biological target: off-target kinases (Homo sapiens, UniProt Q96GD4); settings: AURKB (Aurora B), ATP Km app, ZLYTE
Chain of off-target kinases (Homo sapiens, UniProt Q96GD4) (Q96GD4 whole entry): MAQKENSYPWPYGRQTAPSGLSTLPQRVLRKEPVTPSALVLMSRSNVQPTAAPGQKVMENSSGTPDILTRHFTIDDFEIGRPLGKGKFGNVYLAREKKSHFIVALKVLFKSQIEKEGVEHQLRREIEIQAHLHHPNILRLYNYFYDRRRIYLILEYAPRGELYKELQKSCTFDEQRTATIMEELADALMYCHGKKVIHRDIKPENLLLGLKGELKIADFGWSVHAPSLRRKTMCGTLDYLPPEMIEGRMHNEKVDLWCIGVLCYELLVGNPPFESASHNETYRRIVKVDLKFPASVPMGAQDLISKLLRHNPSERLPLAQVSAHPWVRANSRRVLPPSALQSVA

off-target kinases [9] = biological target: off-target kinases (Homo sapiens, UniProt Q96RG2); settings: PASK, ZLYTE, ATP Km app
off-target kinases [10] = biological target: T1, off-target kinases (Homo sapiens, UniProt Q04771, R206H); settings: ACVR1 (ALK2) R206H, LanthaScreen Binding
T1 sequence (Q04771 21-509 R206H): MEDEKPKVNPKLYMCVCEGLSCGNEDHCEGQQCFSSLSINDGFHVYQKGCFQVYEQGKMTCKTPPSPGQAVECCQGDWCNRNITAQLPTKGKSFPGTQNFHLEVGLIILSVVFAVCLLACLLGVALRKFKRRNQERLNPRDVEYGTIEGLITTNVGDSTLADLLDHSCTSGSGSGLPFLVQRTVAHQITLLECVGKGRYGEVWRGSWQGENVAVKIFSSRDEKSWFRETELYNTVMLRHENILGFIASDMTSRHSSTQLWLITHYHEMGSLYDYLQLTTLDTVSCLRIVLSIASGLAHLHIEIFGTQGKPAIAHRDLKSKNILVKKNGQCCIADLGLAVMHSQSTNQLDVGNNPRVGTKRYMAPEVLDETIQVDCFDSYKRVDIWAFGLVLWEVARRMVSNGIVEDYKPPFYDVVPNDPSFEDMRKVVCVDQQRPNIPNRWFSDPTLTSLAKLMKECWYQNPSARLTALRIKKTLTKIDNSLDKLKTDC

Q: With `N#Cc1cc(-c2ncnc(Nc3ccc(N4CCN(C5COC5)CC4)cc3)n2)ccc1OC1CCOCC1` [Compound 1, 5-(4-((4-(4-(oxetan-3-yl)piperazin-1-yl)phenyl)amino)-1,3,5-triazin-2-yl)-2-((tetrahydro-2H-pyran-4-yl)oxy)benzonitrile] as the compound, how does the inhibition (off-target kinases [1]; read-out: % Inhibition 1) read?
A: 18%

Q: And the inhibition (off-target kinases [1]; read-out: % Inhibition 2)?
A: 19%

Q: What about the inhibition (off-target kinases [1]; read-out: % Inhibition Avg) of the same compound?
A: 18%

Q: What about the inhibition (off-target kinases [2]; read-out: % Inhibition 1) of the same compound?
A: 10%

Q: What about the inhibition (off-target kinases [2]; read-out: % Inhibition 2) of the same compound?
A: -9%

Q: And the inhibition (off-target kinases [2]; read-out: % Inhibition Avg)?
A: 0%

Q: What about the inhibition (off-target kinases [3]; read-out: % Inhibition 1) of the same compound?
A: 6%

Q: And the inhibition (off-target kinases [3]; read-out: % Inhibition 2)?
A: 7%

Q: What about the inhibition (off-target kinases [3]; read-out: % Inhibition Avg) of the same compound?
A: 6%

Q: What about the inhibition (off-target kinases [4]; read-out: % Inhibition 1) of the same compound?
A: 77%

Q: What about the inhibition (off-target kinases [4]; read-out: % Inhibition 2) of the same compound?
A: 73%

Q: And the inhibition (off-target kinases [4]; read-out: % Inhibition Avg)?
A: 75%

Q: What about the inhibition (off-target kinases [5]; read-out: % Inhibition 1) of the same compound?
A: 34%

Q: And the inhibition (off-target kinases [5]; read-out: % Inhibition 2)?
A: 30%

Q: And the inhibition (off-target kinases [5]; read-out: % Inhibition Avg)?
A: 32%

Q: What about the inhibition (off-target kinases [6]; read-out: % Inhibition 1) of the same compound?
A: 98%

Q: And the inhibition (off-target kinases [6]; read-out: % Inhibition 2)?
A: 95%

Q: What about the inhibition (off-target kinases [6]; read-out: % Inhibition Avg) of the same compound?
A: 96%

Q: What about the “% Inhibition 1” value (off-target kinases [7]) of the same compound?
A: −4%

Q: And the “% Inhibition 2” value (off-target kinases [7])?
A: −5%

Q: And the “% Inhibition Avg” value (off-target kinases [7])?
A: −5%

Q: What about the inhibition (off-target kinases [8]; read-out: % Inhibition 1) of the same compound?
A: 54%

Q: And the inhibition (off-target kinases [8]; read-out: % Inhibition 2)?
A: 48%

Q: And the inhibition (off-target kinases [8]; read-out: % Inhibition Avg)?
A: 51%

Q: What about the inhibition (off-target kinases [9]; read-out: % Inhibition 1) of the same compound?
A: 3%

Q: What about the inhibition (off-target kinases [9]; read-out: % Inhibition 2) of the same compound?
A: 1%

Q: And the inhibition (off-target kinases [9]; read-out: % Inhibition Avg)?
A: 2%

Q: And the inhibition (off-target kinases [10]; read-out: % Inhibition 1)?
A: 88%

Q: And the inhibition (off-target kinases [10]; read-out: % Inhibition 2)?
A: 93%

Q: And the inhibition (off-target kinases [10]; read-out: % Inhibition Avg)?
A: 91%
